Reference: patent US20250304620A1, “ANTIMICROBIAL PEPTIDE AND APPLICATION THEREOF” (priority 2023, published 2025)
In brackets after ≈: the same amount, converted by molar mass. Non-standard residues stand in square brackets, D forms with d. Residues, ends and D or L forms follow the SMILES beside them. Phe(3,4-F2) = N[C@@H](Cc1ccc(F)c(F)c1)C(=O)O; 2Nal = N[C@@H](Cc1ccc2ccccc2c1)C(=O)O

What was measured:
rabbit red blood cells = assay type: cell-based; conditions: red cells of rabbit, 1 h
Method: Fresh rabbit blood ([…]) was collected and centrifuged at 500 g for 5 min, a supernatant was discarded, and red blood cells were repeatedly washed with phosphate-buffered saline (PBS, 0.01 M, pH 7.4) until the supernatant was clear. The red blood cells (RBCs) were resuspended to 10 mL, and diluted 25-fold with PBS (0.01 M, pH 7.4) to prepare a red blood cell suspension with a concentration of about 2×10^8 RBC/mL. The AMPs were subjected to gradient dilution with normal saline (0.85%, w/v, NaCl) according to a multiple dilution method, final concentrations of the SMPs were 1.95, 3.9, 7.8, 15.6, 31.3, 62.5, 125, 250, 500, 1000, and 2000 μg/mL. 100 μl of polypeptide solution was taken and added to a 96-well plate with 5 replicates for each concentration; 100 μl of rabbit blood with a red blood cell count of about 2×10^8 RBC/mL was then added to each well, the plate was incubated at 37° C. for 1 h, centrifuged at 500 g for 5 min, 100 μl of supernatant was taken and transferred to a new 96-well plate, and an optical density (OD) at a wavelength of 541 nm was measured using a microplate reader. Triton X-100 (10 mg/mL as a starting concentration, two-fold gradient dilution) was used as a positive control group. A hemolysis rate was calculated using the following formula: Hemolysis rate (%)=[(OD541 of experimental group-OD541 of negative control group)/(OD541 of positive control group−OD541 of negative control group)]×100% Specific results of the hemolysis test are shown in Table 6. Minimum hemolytic concentration (MHC): a lowest drug concentration that can cause 10% hemolysis.

[1] = tested on: Staphylococcus aureus (NRS 384); experiment: microbe, parasite or virus in culture; assay type: cell-based
Description: According to the Standards of Clinical and Laboratory Standards Institute (CLSI) of the USA for antimicrobial drug susceptibility test operation standards, a micronutrient serial twofold dilution method was used to determine minimum inhibitory concentrations (MICs) of all 60 peptides (S/N: LV-1˜LV-60) against Staphylococcus aureus (NRS 384). The experiment was repeated 5 times in parallel. […] An antibacterial drug Levofloxacin and an AMP Cbf-K16 (sequence of Cbf-K16: […]) were used as positive controls to evaluate the antibacterial effect of the antimicrobial peptides on Staphylococcus aureus (NRS 384).

[2] = tested on: Methicillin-sensitive Staphylococcus aureus (NRS 384); assay type: in vivo, ICR mice; conditions: topical formulation 1 mg/mL, 0.1 mL twice a day for 4 days, mouse back skin infection
Method: (§1) Both female and male ICR mice were used in the test, half of the female and male mice were taken and randomly assigned into groups, with 10 mice in each group, and kept in separate cages. The mice were divided into a blank group, a model group, a positive control Methicillin group, and topical formulation groups of AMPs LV-1 to LV-30. Suspensions of Methicillin-sensitive Staphylococcus aureus (NRS 384) and Methicillin-resistant Staphylococcus aureus (MRSA) were prepared, and their concentrations were adjusted to a concentration of 5×10^6 CFU/mL for subsequent use. Hair on backs of the mice was shaved with a shaver, wound was created on back skin of each mouse using a biopsy punch, and the wound was then infected with Methicillin-sensitive Staphylococcus aureus and Methicillin-resistant Staphylococcus aureus (0.1 mL, 5×10^6 CFU/mL) to establish infection models. Except for the blank group and the model group, all other groups received corresponding topical formulations applied directly to the infected areas, with a dose of 0.1 mL, twice a day for 4 consecutive days. On the day following the final administration, skin from the infected sites of each group was aseptically collected, and an antibacterial rate was calculated.

[3] = tested on: Methicillin-resistant Staphylococcus aureus (MRSA); assay type: in vivo, ICR mice; conditions: topical formulation 1 mg/mL, 0.1 mL twice a day for 4 days, mouse back skin infection
Method: as §1

[4] = tested on: Staphylococcus aureus (NRS 384); conditions: 37° C., 3 h
Method: Trypsin (250 U/mg, pH=8.0) and AMPs (LV-1 to LV-30) were mixed in a ratio of 1:10 (w/w) and added to a reaction buffer (0.2 M sodium phosphate, 1 mM CaCl2), pH 7.5), and then incubated at 37° C. for 3 h.

Row | Compound | MIC against Staphylococcus aureus (NRS 384) ([1]; NRS 384) | MHC (minimum hemolytic concentration, lowest concentration causing 10% hemolysis) (rabbit red blood cells) | other results
1 | CC(=O)N[C@@H](CCCCN)C(=O)N[C@@H](CCCCN)C(=O)N[C@@H](CC(C)C)C(=O)N[C@@H](CC(C)C)C(=O)N[C@@H](Cc1ccc2ccccc2c1)C(=O)N[C@@H](CCCCN)C(=O)N[C@@H](CC(C)C)C(=O)N[C@@H](CCCCN)C(=O)N[C@@H](Cc1ccc2ccccc2c1)C(=O)N[C@@H](CCCCN)C(=O)N[C@@H](CCCCN)C(N)=O [LV-47] (Ac-KKLL[2Nal]KLK[2Nal]KK-NH2) | 2 µg/mL (≈ 1.28 µM) | >1000 µg/mL | 
2 | CC(=O)N[C@@H](CCCNC(=N)N)C(=O)N[C@@H](CCCCN)C(=O)N[C@@H](CC(C)C)C(=O)N[C@@H](CC(C)C)C(=O)N[C@@H](Cc1ccc2ccccc2c1)C(=O)N[C@@H](CCCCN)C(=O)N[C@@H](CC(C)C)C(=O)N[C@@H](CCCCN)C(=O)N[C@@H](Cc1ccc2ccccc2c1)C(=O)N[C@@H](CCCCN)C(=O)N[C@@H](CCCNC(=N)N)C(N)=O [LV-48] (Ac-RKLL[2Nal]KLK[2Nal]KR-NH2) | 4 µg/mL (≈ 2.47 µM) | >1000 µg/mL | 
3 | CC(=O)N[C@@H](CCCCN)C(=O)N[C@@H](CCCCN)C(=O)N[C@@H](CC(C)C)C(=O)N[C@@H](CC(C)C)C(=O)N[C@@H](Cc1ccc2ccccc2c1)C(=O)N[C@@H](CCCNC(=N)N)C(=O)N[C@@H](CC(C)C)C(=O)N[C@@H](CCCCN)C(=O)N[C@@H](Cc1ccc2ccccc2c1)C(=O)N[C@@H](CCCNC(=N)N)C(=O)N[C@@H](CCCCN)C(N)=O [LV-49] (Ac-KKLL[2Nal]RLK[2Nal]RK-NH2) | 8 µg/mL (≈ 4.94 µM) | >1000 µg/mL | 
4 | CC(=O)N[C@@H](CCCNC(=N)N)C(=O)N[C@@H](CCCCN)C(=O)N[C@@H](CC(C)C)C(=O)N[C@@H](CC(C)C)C(=O)N[C@@H](Cc1ccc2ccccc2c1)C(=O)N[C@@H](CCCNC(=N)N)C(=O)N[C@@H](CC(C)C)C(=O)N[C@@H](CCCCN)C(=O)N[C@@H](Cc1ccc2ccccc2c1)C(=O)N[C@@H](CCCNC(=N)N)C(=O)N[C@@H](CCCCN)C(N)=O [LV-50] (Ac-RKLL[2Nal]RLK[2Nal]RK-NH2) | 4 µg/mL (≈ 2.43 µM) | >1000 µg/mL | 
5 | CC(=O)N[C@@H](CCCNC(=N)N)C(=O)N[C@@H](CCCNC(=N)N)C(=O)N[C@@H](CC(C)C)C(=O)N[C@@H](CC(C)C)C(=O)N[C@@H](Cc1ccc2ccccc2c1)C(=O)N[C@@H](CCCNC(=N)N)C(=O)N[C@@H](CC(C)C)C(=O)N[C@@H](CCCCN)C(=O)N[C@@H](Cc1ccc2ccccc2c1)C(=O)N[C@@H](CCCNC(=N)N)C(=O)N[C@@H](CCCCN)C(N)=O [LV-51] (Ac-RRLL[2Nal]RLK[2Nal]RK-NH2) | 4 µg/mL (≈ 2.39 µM) | >1000 µg/mL | 
6 | COc1cccc(OC)c1C(=O)N[C@@H]1C(=O)N2[C@@H]1SC(C)(C)[C@@H]2C(=O)O [Methicillin, reference compound] |  |  | Inhibition rate against Methicillin-sensitive Staphylococcus aureus (%) [2]: 84.83%; Inhibition rate against Methicillin-resistant Staphylococcus aureus (%) [3]: 1.05%
7 | Ac-RKLLFRLKFRK-NH2 [LV-32] | 4 µg/mL | >1000 µg/mL | 
8 | KFFRKLKKSVKKRAKKFFKKPRVIGVSIPF [Cbf-K16, reference compound] |  |  | Trypsin MIC ([4]; MIC vs Staphylococcus aureus (NRS 384) after trypsin treatment 1:10 (w/w)): >128 µg/mL; MIC values after trypsin treatment ([4]; trypsin:AMP 1:10 (w/w), Staphylococcus aureus (NRS 384)): lost its antimicrobial activity; MIC against Staphylococcus aureus (NRS 384) ([1]; Staphylococcus aureus (NRS 384)): 32 µg/mL

Continued, in another order:

Row | MIC against Staphylococcus aureus (NRS 384) ([1]; NRS 384) | Compound | MHC (minimum hemolytic concentration, lowest concentration causing 10% hemolysis) (rabbit red blood cells) | other results
9 | 8 µg/mL (≈ 4.78 µM) | CC(=O)N[C@@H](CCCNC(=N)N)C(=O)N[C@@H](CCCCN)C(=O)N[C@@H](CC(C)C)C(=O)N[C@@H](CC(C)C)C(=O)N[C@@H](Cc1ccc2ccccc2c1)C(=O)N[C@@H](CCCNC(=N)N)C(=O)N[C@@H](CC(C)C)C(=O)N[C@@H](CCCCN)C(=O)N[C@@H](Cc1ccc2ccccc2c1)C(=O)N[C@@H](CCCNC(=N)N)C(=O)N[C@@H](CCCNC(=N)N)C(N)=O [LV-52] (Ac-RKLL[2Nal]RLK[2Nal]RR-NH2) | >1000 µg/mL | 
10 | 4 µg/mL (≈ 2.47 µM) | CC(=O)N[C@@H](CCCCN)C(=O)N[C@@H](CCCNC(=N)N)C(=O)N[C@@H](CC(C)C)C(=O)N[C@@H](CC(C)C)C(=O)N[C@@H](Cc1ccc2ccccc2c1)C(=O)N[C@@H](CCCCN)C(=O)N[C@@H](CC(C)C)C(=O)N[C@@H](CCCCN)C(=O)N[C@@H](Cc1ccc2ccccc2c1)C(=O)N[C@@H](CCCCN)C(=O)N[C@@H](CCCNC(=N)N)C(N)=O [LV-53] (Ac-KRLL[2Nal]KLK[2Nal]KR-NH2) | >1000 µg/mL | 
11 | 8 µg/mL (≈ 4.86 µM) | CC(=O)N[C@@H](CCCNC(=N)N)C(=O)N[C@@H](CCCNC(=N)N)C(=O)N[C@@H](CC(C)C)C(=O)N[C@@H](CC(C)C)C(=O)N[C@@H](Cc1ccc2ccccc2c1)C(=O)N[C@@H](CCCCN)C(=O)N[C@@H](CC(C)C)C(=O)N[C@@H](CCCCN)C(=O)N[C@@H](Cc1ccc2ccccc2c1)C(=O)N[C@@H](CCCCN)C(=O)N[C@@H](CCCNC(=N)N)C(N)=O [LV-54] (Ac-RRLL[2Nal]KLK[2Nal]KR-NH2) | >1000 µg/mL | 
12 | 4 µg/mL (≈ 2.52 µM) | CC(=O)N[C@@H](CCCCN)C(=O)N[C@@H](CCCCN)C(=O)N[C@@H](CC(C)C)C(=O)N[C@@H](CC(C)C)C(=O)N[C@@H](Cc1ccc(F)c(F)c1)C(=O)N[C@@H](CCCNC(=N)N)C(=O)N[C@@H](CC(C)C)C(=O)N[C@@H](CCCCN)C(=O)N[C@@H](Cc1ccc(F)c(F)c1)C(=O)N[C@@H](CCCNC(=N)N)C(=O)N[C@@H](CCCCN)C(N)=O [LV-55] (Ac-KKLL[Phe(3,4-F2)]RLK[Phe(3,4-F2)]RK-NH2) | >1000 µg/mL | 
